Results on 7 compounds are retold here after paper PMC4497601 (Angewandte Chemie (International Ed. in English), 2014).

As a reminder, the Kd is the equilibrium constant for the complex coming apart.

Assay [1] concerns the target Hsp90 ATP binding site (Homo sapiens, UniProt P07900). In words: LLS screening in competition mode. As to conditions: Δ=2.5 s; for binding to Hsp90 in LLS competition screening of mixtures: 500 μM spy ligand II, 2.5 μM Hsp90, 600 μM of each ligand.
The subject of assay [2] is Hsp90. Conditions: cited from earlier work.
The target of assay [3] is Hsp90. Conditions: read-out: KD ITC; cited from earlier work.
In assay [4] the target is N-terminal ATPase domain of heat shock protein 90 (Hsp90) (Homo sapiens, UniProt P07900). In words: LLS NMR direct titration of ligand against Hsp90. Format: binding.

Entries after “also recorded” stand apart in the source; their conditions may differ. Some results are limits rather than exact numbers.

Consider `Cc1cnc(N)c(Br)c1` [Ligand V, 3-bromo-5-methylpyridin-2-ylamine], for which the “binding to Hsp90 in LLS competition screening of mixtures” value in assay [1] is “weakly binding”. Also, the “binding to Hsp90 identified by fragment screening” value in assay [2] is recorded as “weak ADP-competitive binders”.
Consider `NCc1ccc(F)c(F)c1` [3,4-difluorobenzylamine], for which, in assay [1], the “binding to Hsp90 in LLS competition screening of mixtures” value is recorded as “nonbinding”.
On the same count and under the same terms, to `N[C@@H](Cc1ccc(O)cc1)C(=O)O` [tyrosine] belongs “nonbinding”; to `N=C(N)c1ccc(C(F)(F)F)cc1` [4-trifluoromethylbenzamidine], “nonbinding”.
For the compound `Nc1ncnc2c1ncn2[C@@H]1O[C@H](COP(=O)(O)OP(=O)(O)O)[C@@H](O)[C@H]1O` [Ligand I, Adenosine diphosphate], the Kd in assay [3] is 10 µM; in assay [4], 15 ± 10 µM. The same compound registered an RLLS bound in assay [4] (bound ligand, fitted from direct titration with 10 μM Hsp90) of 77 ± 6 s⁻¹. Moreover, the RLLS free in assay [4] (free ligand) is given as 731±7 ms^−1.
Take `Nc1ncccn1` [Ligand III, 2-aminopyrimidine]: in assay [3], the Kd was over 1000 µM.
`CC(C)c1cc(C(=O)N2Cc3ccc(CN4CCN(C)CC4)cc3C2)c(O)cc1O` [AT13387]: in assay [1] (500 μM ligand II, 10 μM Hsp90, 10 μM competitor), the “LLS signal of spy ligand II on addition of competitor” value is “almost completely restored; also recorded: partly restored”.
